Test system: chaetomium spore
Assay: Sterilizing power test (D value) against chaetomium spores
Type: cell-based
Conditions: 40° C.; chaetomium spore solution 4×10^6 CFU/ml; peracetic acid and agent concentrations per experiment (c1-c3)
Experimental: 95 g of tap water was added to 5 g of an equilibrated peracetic acid solution containing 4 wt % of peracetic acid, 16 wt % of hydrogen peroxide and 15 wt % of acetic acid, and the resultant mixture was stirred to prepare a uniform aqueous solution. A peracetic acid concentration of the aqueous solution thus prepared was 2,000 ppm.
Each of sterilizing power test sample solutions was prepared by adding a predetermined amount of each of peracetic acid sterilizing power-improving agents shown in the following Table 1 to the peracetic acid aqueous solution prepared in the above paragraph (a) and stirring the mixture.
100 ml of the above prepared test sample solution was placed in an Erlenmeyer flask, and was maintained at 40° C. 1 ml of a chaetomium spore solution having an inoculated bacteria number of 4×10^6 CFU/ml was inoculated therein, and 1 ml of a sample was taken from the Erlenmeyer flask respectively at 10 seconds, 20 seconds, 30 seconds, 60 seconds and 120 seconds after the inoculation. […] Thereafter, a number of live bacteria remaining in each sample optionally diluted was measured in accordance with plate mix-diluting cuture method using a potato dextrose agar medium, and a D value (time (unit: minute) taken to reduce a bacteria number to 1/10) was determined as a standard of sterilizing power. […]

## OCCc1ccccc1 [compound 8]
  D40 (D value: time taken to reduce a bacteria number to 1/10): 238 min
